Measured values taken from the OPERA property sets (Mansouri et al. 2018).

Settings: not given

Row | SMILES | boiling point | log10 Henry constant (atm·m³/mol) | log10 Koa | log10 vapour pressure (mmHg) | melting point | ready biodegradability | log10 Koc (L/kg)
1 | CCCCCOC(C)=O | 149 °C | -3.41 | 4.12 | 0.544 | -70.8 °C | – | –
2 | O=C(O)C(F)(F)C(F)(F)C(F)(F)C(F)(F)C(F)(F)C(F)(F)C(F)(F)C(F)(F)C(F)(F)C(F)(F)C(F)(F)F | 249 °C | – | – | – | 108 °C | not readily biodegradable | –
3 | N#CCCCCCN | 236 °C | – | – | -0.745 | -31.4 °C | – | –
4 | CCCCc1cccc2[nH]nnc12 | – | – | – | – | – | – | 2.16
5 | C=CCN(CC=C)C(=O)C(Cl)Cl | – | – | – | -2.22 | 5.5 °C | – | 1.6
6 | C=CCN(CC=C)C(=O)COC(=O)c1ccccc1 | – | – | – | – | 42.5 °C | – | –
7 | CCC(C)(C)I | 124 °C | – | – | – | – | – | –
8 | C[Si](C)(C)C#C[Si](C)(C)C | 134 °C | – | – | – | 26 °C | – | –
9 | CCC[Si](C)(C)C | 89 °C | – | – | – | – | – | –
10 | C=CCC(C(=O)OCC)C(=O)OCC | 222 °C | – | – | – | – | – | –
11 | CN(C)c1cccc(O)c1 | 266 °C | – | – | – | 86 °C | – | –
12 | NCC1CCCCC1 | 160 °C | – | – | – | – | – | –
13 | CCOC(=O)c1cc([N+](=O)[O-])cc([N+](=O)[O-])c1 | – | – | – | – | 94 °C | – | 2.74
14 | Cc1ccc(C(=O)O)c([N+](=O)[O-])c1O | – | – | – | – | 186 °C | – | –
15 | CCOS(C)(=O)=O | 214 °C | – | – | -0.686 | – | – | –
16 | Clc1cccc(Cl)c1Cl | 218 °C | -2.9 | 5.19 | -0.678 | 53.5 °C | not readily biodegradable | 3.33
17 | CCCCCCCCCCCCCCCC=O | – | – | – | – | 35 °C | – | –
18 | CN(C)CCc1c[nH]c2cccc(OP(=O)(O)O)c12 | – | – | – | – | 224 °C | – | –
19 | C/C=C/CC(C)C | 88.1 °C | – | – | – | -124 °C | – | –
20 | NC(=O)C(CCN1CCCCCC1)(c1ccccc1)c1ccccc1 | – | – | – | – | 142 °C | – | –
21 | CC(/C=C\c1ccccc1)c1ccccc1 (configuration not stated) | 311 °C | – | – | – | 47.5 °C | – | –
22 | CNC(=O)Oc1ccccc1OC(C)C | – | – | – | -5.01 | 87 °C | readily biodegradable | 1.67
23 | CC(C)OC(=O)OOC(C)(C)C | – | – | – | – | – | not readily biodegradable | –
24 | Clc1ccc(-c2ccc(Cl)c(Cl)c2Cl)cc1Cl | – | – | 10 | -5.18 | – | – | –
25 | CC(C)(Cl)C=O | 90 °C | – | – | – | – | – | –
26 | Oc1ccc2c(c1)[C@@]13CCCC[C@@]1(O)[C@@H](C2)N(CC1CCC1)CC3 | – | – | – | – | 216 °C | – | –
27 | c1cnc2[nH]ccc2c1 | – | – | – | – | 106 °C | – | –
28 | Fc1cc(F)c(F)c(F)c1 | 84.4 °C | – | – | 1.86 | -48 °C | – | –

Row | SMILES | boiling point | log10 Henry constant (atm·m³/mol) | log10 Koa | log10 vapour pressure (mmHg) | melting point | ready biodegradability | log10 Koc (L/kg)
29 | O=C(O)CCCCCCCF | – | – | – | – | 35 °C | – | –
30 | O=C(OCC(=O)N1CCCCC1)c1ccccc1 | – | – | – | – | 88 °C | – | –
31 | CC#Cc1ccccc1 | 183 °C | – | – | – | – | – | –
32 | Cc1c([N+](=O)[O-])cc(C(C)C)c(O)c1[N+](=O)[O-] | – | – | – | – | 55.5 °C | – | –
33 | O=C(O)CCc1ccccc1 | 280 °C | – | – | -2.57 | 107 °C | – | –
34 | Cc1cccc2sc3nncn3c12 | 275 °C | – | – | -6.7 | 187 °C | – | 3.09
35 | CCCCCCCCCCCCCCCCCCOO | – | – | – | – | 49.5 °C | – | –
36 | C=C(C)C(C)C | 55.6 °C | – | – | 2.4 | -157 °C | – | –
37 | CC(C)CCCCCOC(=O)c1ccccc1C(=O)OCCCCCC(C)C | – | – | – | -5.26 | – | – | 3.21
38 | Cc1ccc(N)c(Cl)c1 | 220 °C | – | – | – | 7 °C | – | –
39 | CC(C)(N=C=O)c1cccc(C(C)(C)N=C=O)c1 | – | – | – | -2.49 | – | – | –
40 | Clc1ccccc1-c1c(Cl)cccc1Cl | – | -3.64 | – | – | – | – | –
41 | CC(C1CC1)C(O)(Cn1cncn1)c1ccc(Cl)cc1 (configuration not stated) | – | – | – | -6.59 | 108 °C | – | –
42 | CC(C)(C)CCC(C)(C)C | 137 °C | – | – | 0.942 | -12.6 °C | – | –
43 | CC(=O)CC(=O)CC(C)=O | – | – | – | – | 49 °C | – | –
44 | ClC(Cl)C(Cl)(Cl)C(Cl)(Cl)Cl | 248 °C | – | – | – | 29.4 °C | – | –
45 | O=C(O)CCCCCCC[C@H](O)[C@H](O)CCCCCCO | – | – | – | – | 100 °C | – | –
46 | C=C(C)C(N)=O | – | – | – | -1.07 | 110 °C | – | –
47 | OC(CCN1CCCC1)(c1ccccc1)C1CCCCC1 (configuration not stated) | – | – | – | – | 86 °C | – | –
48 | CCCCCCCCSC(=O)Oc1cc(Cl)nnc1-c1ccccc1 | – | – | – | -9.01 | 27 °C | – | –
49 | NC(c1ccccc1)c1ccccc1 | 304 °C | – | – | – | 34 °C | – | –
50 | O=C(n1ccnc1)n1ccnc1 | – | – | – | – | 119 °C | – | –
51 | Cc1ccc(N(SC(F)(Cl)Cl)S(=O)(=O)N(C)C)cc1 | – | – | – | -5.82 | 96 °C | – | –
52 | N#Cc1ccc(Cl)cc1 | 223 °C | – | – | – | 95 °C | – | –
53 | CC(Br)Br | 108 °C | – | – | 1.41 | -63 °C | – | –
54 | CCCC(=O)C(=O)O | 179 °C | – | – | – | 6.5 °C | – | –
55 | CCCCCCCCC(=O)CC | 227 °C | – | – | – | 12 °C | – | –

Same assay, conditions: fish

Row | SMILES | log10 BCF | log10 biotransformation half-life (days)
56 | N=C(Nc1ccccc1)Nc1ccccc1 | 1.3 | –
57 | Clc1cc2c(oc3cc(Cl)c(Cl)c(Cl)c32)c(Cl)c1Cl | 3.94 | 1
58 | COc1ccccc1[N+](=O)[O-] | 0.7 | -1.04
59 | CC(Cl)(Cl)Cl | 0.7 | -1.39
60 | Clc1ccc(Oc2c(Cl)cc(Cl)cc2Cl)c(Cl)c1 | – | 1.69
61 | Clc1cccc(Cl)c1Cl | 2.82 | 0.92
62 | Clc1ccc(-c2ccc(Cl)c(Cl)c2Cl)cc1Cl | – | 2.06
63 | Clc1ccccc1-c1c(Cl)cccc1Cl | – | 2.5
